Tests used:
Nek2 = molecular target: T1, Nek2 (Homo sapiens, UniProt P51955); type: biochemical
T1 sequence (P51955 1-445): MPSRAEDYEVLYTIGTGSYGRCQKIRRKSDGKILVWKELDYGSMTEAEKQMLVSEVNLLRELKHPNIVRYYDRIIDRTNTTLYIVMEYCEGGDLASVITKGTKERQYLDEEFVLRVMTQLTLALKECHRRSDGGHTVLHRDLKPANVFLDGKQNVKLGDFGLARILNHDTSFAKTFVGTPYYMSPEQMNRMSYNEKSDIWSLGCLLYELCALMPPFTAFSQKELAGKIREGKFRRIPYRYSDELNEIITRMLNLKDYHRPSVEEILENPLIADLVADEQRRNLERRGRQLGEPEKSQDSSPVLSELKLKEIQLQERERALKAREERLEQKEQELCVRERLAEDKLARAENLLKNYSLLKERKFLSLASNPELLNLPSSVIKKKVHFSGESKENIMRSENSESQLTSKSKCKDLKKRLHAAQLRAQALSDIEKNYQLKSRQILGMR

[1] = tested on: phosphorylation of C-Nap1; assay: Phosphorylated C-Nap1 in cell assay; settings: for modulation of C-Nap1 phosphorylation: aphidicolin-synchronized U2OS cells, different concentrations

CC(Oc1cc(-c2cc(-c3ccc(CN4CCOCC4)s3)cnc2N)ccc1C(N)=O)c1ccccc1C(F)(F)F (stereo not shown) [17g]
increase of Nek2 IC50 compared with compound 17c (Nek2): more than 7 fold

C[C@@H](Oc1cc(-c2cc(-c3cc(CN(C)C)cs3)cnc2N)ccc1C(N)=O)c1ccccc1C(F)(F)F [(R)-17j]
IC50 ([1]; Homo sapiens, U2OS, 3 h, read-out: IC50 for C-Nap1 phosphorylation inhibition): 2700 nM

C[C@@H](/C=C\C(F)(F)F)Oc1cc(-c2cc(-c3cc(CN(C)C)cs3)cnc2N)ccc1C(N)=O [(S)-21, (S)-(Z)-4-(2-Amino-5-(4-((dimethylamino)methyl)thiophen-2-yl)pyridin-3-yl)-2-((5,5,5-trifluoropent-3-en-2-yl)oxy)benzamide]
modulation of C-Nap1 phosphorylation [1]: significantly less suppression of C-Nap1 phosphorylation

CC(Oc1cc(-n2cnc3cc(OC4CCN(C)CC4)ccc32)ccc1C(N)=O)c1ccccc1C(F)(F)F (racemic) [rac-3, reference compound]
modulation of C-Nap1 phosphorylation [1]: did not show any significant modulation of C-Nap1 phosphorylation

Reference: paper PMC3935458 (Journal of medicinal chemistry, 2012)
